Measurements from US11207303B2, “Therapeutic agent for fibrodysplasia ossificans progressiva” (Kyoto University, priority 2015, dated 2021).

System: mesenchymal stem cell-like cells derived from iPS cells established from a FOP patient (ACVR1 R206H)
Assay: Activin-A-induced chondrogenic differentiation of FOP patient-derived cells (sulfated glycosaminoglycan quantification)
Format: cell-based
Conditions: 100 ng/mL human activin-A, compound 0.01 to 100 nM, six days, P<0.0001 at 0.1-100 nM rapamycin, 1-100 nM everolimus or temsirolimus vs activin-A only
Text: According to the method of Yamanaka et. al., (Cell, 2007, 131 (5), […]), iPS cells derived from a FOP patient (referred to as “patient-derived iPS cells” in some cases hereafter) were established. […] This mutation is a mutation that replaces the 206th arginine residue into a histidine residue in the amino acid sequence of ACVR1 (the amino acid sequence as set forth in SEQ ID NO:2). In addition, with a view toward using as a control, the mutation of the ACVR1 gene described above was corrected to the normal type (the wild type) by the gene correction with a BAC (Bacterial Artificial Chromosome) knock-in vector, thus establishing corrected iPS cells which may be referred to as “gene-corrected (rescued) iPS cell clone” in some cases hereafter.
The patient-derived iPS cells were cultured on a Matrigel coated plate [manufactured by Becton, Dickinson and Company; trade name, Growth Factor Reduced (GFR) BD MATRIGEL (registered trademark)] in mTeSR1 (manufactured by STEMCELL Technologies Inc.) under a feeder-free condition for two days. […]
These mesenchymal stem cell-like cells were cultured under a condition of a chondrogenic induction medium according to the method of Umeda (Sci. Rep, 2012, 2, 455) for six days and differentiated into chondrocytes. […] Also, compounds for which their inhibitory effect against the chondrogenic differentiation were to be evaluated (concentrations of from 0.01 to 100 nM) were added simultaneously with human activin-A (referred to as “activin-A” in some cases hereafter). […] The degree of differentiation into chondrocytes was measured with a quantification kit for sulfated glycosaminoglycan (manufactured by Biocolor Inc.; trade name, Blyscan Glycosaminoglycan Assay Kit). […]

Row | Compound | chondrogenic differentiation (amount of sulfated glycosaminoglycan)
1 | CO[C@H]1C[C@@H]2CC[C@@H](C)[C@@](O)(O2)C(=O)C(=O)N2CCCC[C@H]2C(=O)O[C@H]([C@H](C)C[C@@H]2CC[C@@H](OC(=O)C(C)(CO)CO)[C@H](OC)C2)CC(=O)[C@H](C)/C=C(\C)[C@@H](O)[C@@H](OC)C(=O)[C@H](C)C[C@H](C)/C=C/C=C/C=C/1C [temsirolimus] | suppressed the chondrogenic differentiation
2 | CO[C@H]1C[C@@H]2CC[C@@H](C)[C@@](O)(O2)C(=O)C(=O)N2CCCC[C@H]2C(=O)O[C@H]([C@H](C)C[C@@H]2CC[C@@H](OP(C)(C)=O)[C@H](OC)C2)CC(=O)[C@H](C)/C=C(\C)[C@@H](O)[C@@H](OC)C(=O)[C@H](C)C[C@H](C)/C=C/C=C/C=C/1C [ridaforolimus] | suppressed the chondrogenic differentiation
3 | CO[C@H]1C[C@@H]2CC[C@@H](C)[C@@](O)(O2)C(=O)C(=O)N2CCCC[C@H]2C(=O)O[C@H]([C@H](C)C[C@@H]2CC[C@@H](OCCO)[C@H](OC)C2)CC(=O)[C@H](C)/C=C(\C)[C@@H](O)[C@@H](OC)C(=O)[C@H](C)C[C@H](C)/C=C/C=C/C=C/1C [everolimus] | suppressed the chondrogenic differentiation
